The results in this text go back to PubChem BioAssay (NCI).

Each structure is given as a SMILES string.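 1) Cells in 96-well plates. 2) Compound, 48 h, 5 concentrations. 3) Linear interpolation between surrounding doses. 4) Unreached endpoint = highest concentration. Abbreviation: GI50, concentration required for 50% inhibition of growth. At the TGI there is no net growth.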

Some test systems named below: HCT-116 colon; HOP-62 NSCLC; NCI-H460 lung; OVCAR-8 ovarian; RXF 393 renal; SF-295 CNS; SNB-75 CNS; SR leukemia; U251 CNS; UACC-257 melanoma.
Holding throughout (test): NCI anticancer screen, dose series, 48 h

As to `COc1cccc(-c2nn(-c3ccccc3)cc2-c2ccnc(NCCNS(=O)(=O)c3ccc(Cl)cc3)c2)c1`, the GI50 with HCT-116 colon was 4.63 µM; with HOP-62 NSCLC, 13.5 µM; in the test with NCI-H460 lung, 5.15 µM; in the test with OVCAR-8 ovarian, 7.54 µM; in the test on RXF 393 renal it was 5.03 µM; with SF-295 CNS, 3.89 µM. Moreover, the GI50 is 7.92 µM in the test with SNB-75 CNS, 2.25 µM with SR leukemia, 5.89 µM in the test with U251 CNS and 7.03 µM in the test with UACC-257 melanoma. Also, the TGI with HCT-116 colon is above 100 µM; in the test on HOP-62 NSCLC it was above 100 µM; in the test with NCI-H460 lung it was above 100 µM; in the test on OVCAR-8 ovarian, above 100 µM; in the test on RXF 393 renal it was above 100 µM; in the test with SF-295 CNS, 57.5 µM. Also, the TGI in the test on SNB-75 CNS was above 100 µM; in the test with SR leukemia it was 6.59 µM; with U251 CNS it was above 100 µM; in the test on UACC-257 melanoma it was 44.9 µM.

As to `CSC(=S)c1ccc(C(=S)SC)cc1`, the TGI in the test with HCT-116 colon, with HOP-62 NSCLC, with NCI-H460 lung, in the test with OVCAR-8 ovarian, in the test on RXF 393 renal and in the test with SF-295 CNS was above 100 µM each time. Besides, the TGI in the test on SNB-75 CNS, with SR leukemia, with U251 CNS and with UACC-257 melanoma was above 100 µM in each case.

With `OCCN(CCO)N=Nc1ccc(-c2nc3ccccc3[nH]2)cc1`, the GI50 with HCT-116 colon was 25.3 µM; in the test with HOP-62 NSCLC, above 100 µM; in the test with NCI-H460 lung, 13.7 µM; in the test with OVCAR-8 ovarian, 24.7 µM; in the test on RXF 393 renal it was 27.9 µM; with SF-295 CNS, 17.4 µM. Moreover, the GI50 with SNB-75 CNS is 28.9 µM; in the test with SR leukemia, 20.3 µM; in the test on U251 CNS, 17.6 µM; with UACC-257 melanoma, 33.2 µM. Moreover, the TGI in the test with HCT-116 colon is 64.3 µM; with HOP-62 NSCLC, above 100 µM; with NCI-H460 lung, 29.5 µM; in the test with OVCAR-8 ovarian it was 53.9 µM; with RXF 393 renal it was 65 µM; with SF-295 CNS it was 36 µM. For the same compound, the TGI with SNB-75 CNS is above 100 µM; with SR leukemia, 58.2 µM; in the test with U251 CNS it was 37.4 µM; with UACC-257 melanoma, above 100 µM.

On to `C[Si](C)(C)C#CCO[Si](C)(C)C`, for which the TGI in the test with HCT-116 colon, in the test on HOP-62 NSCLC, in the test with NCI-H460 lung, in the test on OVCAR-8 ovarian, with RXF 393 renal and in the test on SF-295 CNS was above 100 µM each time. The TGI is above 100 µM in the test on SNB-75 CNS, above 61.5 µM in the test on SR leukemia, above 100 µM in the test on U251 CNS and above 100 µM with UACC-257 melanoma.

Turning to `COc1ccc(C(=O)Cn2c(C(=O)c3ccc(OC)cc3)nc3ccccc32)cc1`, the GI50 was 2.36 µM with HCT-116 colon; 5.46 µM in the test on HOP-62 NSCLC; 3.73 µM with NCI-H460 lung; 5.85 µM in the test on OVCAR-8 ovarian; 2.07 µM in the test on RXF 393 renal; 2.08 µM with SF-295 CNS. Besides, the GI50 in the test on SNB-75 CNS was 2.16 µM; with SR leukemia it was 0.557 µM; with U251 CNS, 3.16 µM; with UACC-257 melanoma, 53 µM. The TGI with HCT-116 colon is above 100 µM; in the test on HOP-62 NSCLC it was above 100 µM; in the test on NCI-H460 lung, above 100 µM; with OVCAR-8 ovarian, above 100 µM; in the test on RXF 393 renal it was above 23.2 µM; in the test with SF-295 CNS it was above 100 µM. For the same compound, the TGI is above 54.3 µM in the test with SNB-75 CNS, above 100 µM with U251 CNS and above 100 µM in the test on UACC-257 melanoma.

For the compound `O=C(Nc1ccc(Cl)c(C(F)(F)F)c1)C(=O)C(C(=O)/C=C/c1ccccc1)C1OC(=O)c2ccccc21` (centres undefined), the TGI in the test with HCT-116 colon, in the test with HOP-62 NSCLC, with NCI-H460 lung, in the test on OVCAR-8 ovarian, with RXF 393 renal and in the test with SF-295 CNS was above 100 µM each time. Moreover, the TGI in the test with SNB-75 CNS, in the test with SR leukemia, in the test with U251 CNS and in the test with UACC-257 melanoma was above 100 µM throughout.

Consider `CS(=O)(=O)c1ccc(Oc2cc(F)cc(C#N)c2)c2c1[C@H](O)[C@H](F)[C@@H]2F`, for which the GI50 in the test with HCT-116 colon, in the test with HOP-62 NSCLC, in the test on NCI-H460 lung, with OVCAR-8 ovarian, in the test on RXF 393 renal and with SF-295 CNS was above 100 µM in each case. In addition, the GI50 in the test with SNB-75 CNS, with SR leukemia, in the test on U251 CNS and with UACC-257 melanoma was above 100 µM each time. In addition, the TGI with HCT-116 colon, in the test on HOP-62 NSCLC, with NCI-H460 lung, in the test with OVCAR-8 ovarian, with RXF 393 renal and in the test on SF-295 CNS was above 100 µM each time. Also, the TGI with SNB-75 CNS, in the test on SR leukemia, in the test with U251 CNS and in the test on UACC-257 melanoma was above 100 µM throughout.

Regarding `Nc1c(C(=O)Nc2ccccc2)sc2nc3c(cc12)CCCCCC3`, the GI50 was 0.328 µM in the test on HCT-116 colon; 0.648 µM in the test on HOP-62 NSCLC; 0.352 µM with NCI-H460 lung; 0.478 µM in the test with OVCAR-8 ovarian; 0.432 µM in the test on RXF 393 renal; 0.291 µM in the test with SF-295 CNS. The GI50 with SNB-75 CNS was 0.241 µM; with SR leukemia it was 0.138 µM; with U251 CNS, 0.395 µM; in the test with UACC-257 melanoma it was 3.1 µM. For the same compound, the TGI in the test on HCT-116 colon turned out to be 4.85 µM; with HOP-62 NSCLC, 6.97 µM; in the test on NCI-H460 lung, 3.91 µM; with OVCAR-8 ovarian it was 16.7 µM; in the test with RXF 393 renal, 2.18 µM; with SF-295 CNS, 1.69 µM. For the same compound, the TGI in the test with SNB-75 CNS came out at 0.898 µM; in the test with SR leukemia, 30.9 µM; in the test on U251 CNS, 7.78 µM; in the test on UACC-257 melanoma it was 28.9 µM.

With `CCn1c(=O)c(-c2ccn[nH]2)cc2c(C)nc(N)nc21`, the GI50 in the test on HCT-116 colon is 2.36 µM; in the test with HOP-62 NSCLC, 0.575 µM; in the test on NCI-H460 lung it was 1.4 µM; in the test with OVCAR-8 ovarian, 2.51 µM; with RXF 393 renal, 0.426 µM; with SF-295 CNS, 0.559 µM. Moreover, the GI50 with SNB-75 CNS was 0.182 µM; in the test with SR leukemia, 1.64 µM; in the test with U251 CNS it was 3.75 µM; with UACC-257 melanoma it was 1.38 µM. Also, the TGI was above 100 µM in the test on HCT-116 colon; 5.91 µM with HOP-62 NSCLC; above 100 µM in the test on NCI-H460 lung; 61.7 µM in the test on OVCAR-8 ovarian; 2.47 µM with RXF 393 renal; 3.68 µM in the test on SF-295 CNS. Further, the TGI in the test with SNB-75 CNS was 2.49 µM; with SR leukemia, above 100 µM; in the test with U251 CNS, above 100 µM; in the test with UACC-257 melanoma, 6.24 µM.
